Assay [1] relates to Acetic Acid-induced Writhing Model. Nature of the assay: Analgesia test in acetic acid-induced writhing model (oral gavage). The format is in vivo. The conditions noted are these: CD-1 mice, n=5, mean ± standard error, single oral gavage; for Number of Writhing 5-15 min: 5-15 min after injection of 0.6% glacial acetic acid, acetic acid 2h after administration (Fentanyl intravenous, 10 min after). Dose mg/kg: Fentanyl 0.008, A10-0 18.0, A3 30.0, A10 30.1, A14 30.6, A15 20.6, A17 18.7, A18 32.3, A21 31.8, A22 22.3, A7 40.7, A19 18.4, A23 28.4, A44 32.0, A24 25.5, A53 26.9, A40 34.5, A55 40.5, A57 26.7, A4 30; for Number of Writhing 15-30 min: 15-30 min after injection of 0.6% glacial acetic acid, acetic acid 2h after administration (Fentanyl intravenous, 10 min after). Dose mg/kg: Fentanyl 0.008, A10-0 18.0, A3 30.0, A10 30.1, A14 30.6, A15 20.6, A17 18.7, A18 32.3, A21 31.8, A22 22.3, A7 40.7, A19 18.4, A23 28.4, A44 32.0, A24 25.5, A53 26.9, A40 34.5, A55 40.5, A57 26.7, A4 3; for Time to start writhing: 0.6% glacial acetic acid 2h after administration (Fentanyl intravenous, 10 min after). Dose mg/kg: Fentanyl 0.008, A10-0 18.0, A3 30.0, A10 30.1, A14 30.6, A15 20.6, A17 18.7, A18 32.3, A21 31.8, A22 22.3, A7 40.7, A19 18.4, A23 28.4, A44 32.0, A24 25.5, A53 26.9, A40 34.5, A55 40.5, A57 26.7, A4 30.0; for Number of Writhing Total: total of 5-15 min and 15-30 min after injection of 0.6% glacial acetic acid, acetic acid 2h after administration (Fentanyl intravenous, 10 min after). Dose mg/kg: Fentanyl 0.008, A10-0 18.0, A3 30.0, A10 30.1, A14 30.6, A15 20.6, A17 18.7, A18 32.3, A21 31.8, A22 22.3, A7 40.7, A19 18.4, A23 28.4, A44 32.0, A24 25.5, A53 26.9, A40 34.5, A5. For orientation: An intraperitoneal irritant provokes the stretching counted in writhing tests.

In assay [2] the test system is inflammatory pain model induced by complete Freund's adjuvant in mice. Nature of the assay: Mechanical pain test of inflammatory pain model induced by complete Freund's adjuvant in mice. The format is in vivo, mice (C57BL/6J). The conditions noted are these: C57BL/6J male mice, n=4; tested 0.5h, 2h, 8h, 24h after first administration; Morphine 2 mg/kg subcutaneous; A10-0 5 mg/kg and A3 8.4 mg/kg oral gavage at intervals of 8h.

Turning to `COc1cc2c(cc1OC)[C@@H]1Cc3ccc(OC(=O)[C@@H](C)c4ccc(-c5ccccc5)c(F)c4)c(OC)c3CN1CC2` [Compound A4], in assay [1], the “Number of Writhing 5-15 min” value stood at 14±14, the “Number of Writhing 15-30 min” value was 12±14, the “Time to start writhing” value amounted to 154 ± 151 s and the “Number of Writhing Total” value is on record as 26±27.

In the case of `COc1cc2c(cc1OC)[C@@H]1Cc3ccc(O)c(OC)c3CN1CC2` [Compound A10-0, Corydalmine], in assay [2], the “analgesic effect on the inflammatory pain model in mice (mechanical pain threshold, Fig. 1)” value is listed as “did not have a significant analgesic effect on the inflammatory pain model in mice” and the “effect of reducing the sole-swelling degree in mice (plantar thickness, Fig. 2)” value is “had an effect of reducing the sole-welling degree in mice, but the effect was maintained for a short time”. For the same molecule, in assay [1], the “Number of Writhing 5-15 min” value is reported as 4±3, the “Number of Writhing 15-30 min” value was found to be 5±3, the “Time to start writhing” value stood at 545 ± 221 s and the “Number of Writhing Total” value came out at 9±2.

`CN1CC[C@]23c4c5ccc(O)c4O[C@H]2[C@@H](O)C=C[C@H]3[C@H]1C5` [Morphine]: in assay [2], the “analgesic effect on the inflammatory pain model in mice (mechanical pain threshold, Fig. 1)” value is listed as “a good analgesic effect on the inflammatory pain mode in mice, but the effect cannot be maintained for a long term” and the “effect of reducing the sole-swelling degree in mice (plantar thickness, Fig. 2)” value is “did not have an effect of reducing the sole-swelling degree in mice”.

These data come from EP4606800A1, “COMPOUND BASED ON ORYDALMINE STRUCTURE AND USE THEREOF” (Beijing Tide Pharmaceutical Co., Ltd., priority 2022, dated 2024).
